“Also recorded” adds a separate entry of the source.

Data on five molecules can be found in patent publication US8993725B2, “Notch-based fusion proteins and uses thereof” (The Trustees of Columbia University in the City of New York, priority 2004, dated 2015).

What all share (format): cell-based, Human
The test system of one experiment is Ad-N1IC-transduced HUVEC. Description: Notch-induced budding of Ad-N1IC-transduced HUVEC on gel. Conditions: for Effect of receptor tyrosine kinase inhibitors on budding of Ad-N1IC-HUVEC: inhibitors at 1 μM, Ad-N1IC 40 MOI, complete medium. On the procedure:
HUVEC were transduced with either Ad-LacZ or Ad-N1IC at 40 MOI. FIGS. 23A-23C show the effect of inhibitors for receptor tyrosine kinases on Notch-induced HUVEC budding. FIG. 23A is a photograph of budding of Ad-N1IC-transduced HUVEC treated with PD166866, ZD1893 at 1 μM and SU5416 at 0.5 μM. […] FIGS. 23F-G show promotion of Notch-induced HUVEC budding with PlGF stimulation. Ad-N1IC-transduced HUVEC were cultured on collagen gel with SFM, instead of complete medium, in the absence or presence of 50 ng/ml PlGF. […] FIGS. 23H-I show the effect of Flt-1 siRNA transfection on Flt1 expression. Ad-N1IC-transduced HUVEC were transfected with 200 pmol of either control (CT) or Flt-1 siRNA. […] Ad-N1IC-transduced HUVEC were transfected with either 100 or 200 pmol of siRNA and cultured on collagen gel for 2 days.
Either Ad-LacZ or Ad-N1IC-HUVEC at a MOI of 40 pfu/cell were cultured on collagen gel for 5 days in the absence or presence of GM6001 at 50 μm.
To test whether Notch signaling is down-stream of VEGF, we evaluated three distinct inhibitors for receptor tyrosine kinases, including VEGFR on N1IC-induced HUVEC budding, because three growth factors existed in complete medium (FIG. 23A-C). […] Thus, we examined whether activation of Notch signaling affected Flt1/VNGFR1 expression in HUVEC, because SU5416 inhibits both Flt1 and Flk1 kinase activity (15). […] PlGF increased the number of Ad-N1IC-HUVEC buds by 150%, compared to the absence of PlGF (FIG. 23F). Moreover, PlGF increased HUVEC buds containing multiple filopodia by 250% (FIG. 23G).

In experiment [1] the test system is Notch signaling (CBF1 promoter activity) in HUVEC. Description: VEGF-induced Notch signaling, CBF1 promoter / CSL-luciferase reporter activity in HUVEC. The following applies: Ad-VEGF-transduced HUVEC, 20 MOI. The protocol:
To determine VEGF-induced Notch signaling, HUVEC which were infected with adenovirus were used. HUVEC plated 1-day prior in 6 well plates at 8.0×10^5 were infected with either Ad-LacZ as control or Ad-VEGF at indicated m.o.i. in the presence or absence of Ad-N1ECD/Fc. Two days after infection, infected HUVEC were re-seeded into 24-well plate at 1.5×10^5 cell in triplicate and cultured for 24 hours, and then transfected with 12.5 ng pRL-SV40 (Promega) and 137.5 ng pGA981-6 using Effectene transfection reagent (Qiagen). Cells were harvested either 1 or 2 days post-transfection and luciferase activity was determined by using the Dual-Luciferase® Reporter Assay System (Promega).
One can measure Notch signaling function by measuring transcriptional activity of CBF1 promoter, which is activated by binding of Notch-IC to CBF1. We measured CBF1 promoter activity in HUVEC which was infected with adenovirus encoding VECF-165 at different MOI (FIG. 6). Induction of CBF1 promoter was clearly detected in Ad-VEGF-infected HUVEC, compared to Ad-LacZ-infected cells in the MOI dependent manner. […] Thus VEGF induced Notch signaling activity.
A general note: Reporter assays use an easily measured gene product as a stand-in for the process of interest.

The next experiment relates to HUVEC. The experiment is described as follows: HUVEC proliferation (CCK-8 kit). The following applies: SFM with 1% FBS, 4 days. On the procedure:
These Figures show proliferation of Ad-VEGF165-transduced HUVEC. HUVEC were transduced with Ad-VEGF165 at the indicated dosages. Ad-LacZ was also co-infected to make the same total amount of adenovirus at a MOI of 40 pfu/cell. HUVEC were suspended in SFM supplemented with 1% FBS and then plated at 1×10^4 cells/well in 24-well multi-well plates with 0.4 ml of medium. After 4 days, cell numbers were determined using the CCK-8 kit and the results are indicated as the ratio of cell numbers determined to the number of control cells, which were transduced with Ad-GFP at a MOI of 40 pfu/cell. […] Ad-VEGF-transduced HUVEC were treated with SU5416 at the indicated dosages.
These Figures show the effect of alteration of Notch signaling on cell proliferation. The cells were transduced with the indicated adenoviruses. Ad-GFP was also co-infected to make the same total amount of adenovirus at a MOI of 60 pfu/cell. After 4 days, cell numbers were determined using the CCK-8 kit and results are indicated as the ratio of cell numbers determined to the number of control cells, which were transduced with AD-GFP at MOI of 60 pfu/cell. […] Transduced HUVEC were suspended in complete medium and then plated at 1×10^4 cells/well in 24-well multiwell plates with 0.4 ml of indicated medium (□: Ad-N1IC; ▪: Ad-N1ECDFc). […]
For orientation: Tetrazolium dyes change colour on reduction, which living cells bring about.

As for `CNC(=O)[C@H](Cc1c[nH]c2ccccc12)NC(=O)[C@@H](CC(=O)NO)CC(C)C` [GM6001], the “Effect on budding of Ad-N1IC-HUVEC on collagen gel” value in the experiment with Ad-N1IC-transduced HUVEC (GM6001 at 50 μm, 5 days) is on record as “inhibition of budding; also recorded: clearly decreased budding”. Further, in the experiment on Ad-N1IC-transduced HUVEC (data not shown), the “Effect on budding of Ad-N1IC-HUVEC on fibrin gel” value is listed as “clearly decreased budding”.
On to `COc1cc(OC)cc(-c2cc3cnc(N)nc3nc2NC(=O)NC(C)(C)C)c1` [PD166866], for which the “Effect of receptor tyrosine kinase inhibitors on budding of Ad-N1IC-HUVEC” value with Ad-N1IC-transduced HUVEC is “Neither PD166866 or ZD1893 affected budding”.
`Cc1cc(C)c(/C=C2\C(=O)Nc3ccccc32)[nH]1` [SU5416, reference compound]: the “Effect of compound treatment on VEGF-induced CSL-luciferase reporter activity” value in experiment [1] is listed as “decreased VEGF-induced CSL-luciferase reporter activity”. Moreover, the “Proliferation of Ad-VEGF-transduced HUVEC” value in the experiment on HUVEC was “inhibitory effect”. For the same molecule, the “Effect of receptor tyrosine kinase inhibitors on budding of Ad-N1IC-HUVEC” value in the experiment on Ad-N1IC-transduced HUVEC was “clearly inhibited”. Besides, the “Dose-dependency of effect on budding versus viability of Ad-N1IC-HUVEC” value with Ad-N1IC-transduced HUVEC (lower concentrations) is recorded as “selectively inhibited budding of Ad-N1IC-HUVEC with less reduction of viability at lower concentrations”.
`COc1cc2ncnc(Nc3ccc(F)c(Cl)c3)c2cc1OCCCN1CCOCC1` [ZD1893]: the “Effect of receptor tyrosine kinase inhibitors on budding of Ad-N1IC-HUVEC” value in the experiment on Ad-N1IC-transduced HUVEC is on record as “Neither PD166866 or ZD1893 affected budding”.

B1: PlGF: a selective ligand for Flt1 (protein, UniProt P49763 19-221, looked up)
Placenta growth factor: LPAVPPQQWALSAGNGSSEVEVVPFQEVWGRSYCRALERLVDVVSEYPSEVEHMFSPSCVSLLRCTGCCGDENLHCVPVETANVTMQLLKIRSGDRPSYVELTFSQHVRCECRHSPGRQSPDMPGDFRADAPSFLPPRRSLPMLFRMEWGCALTGSQSAVWPSSPVPEEIPRMHPGRNGKKQQRKPLREKMKPERCGDAVPRR
On to B1, for which, in the experiment with Ad-N1IC-transduced HUVEC (50 ng/ml PlGF, SFM, collagen gel), the “Increase of HUVEC buds containing multiple filopodia” value is 250%. Besides, the “Increase of the number of Ad-N1IC-HUVEC buds” value with Ad-N1IC-transduced HUVEC (50 ng/ml PlGF, SFM, collagen gel, compared to the absence of PlGF) was found to be 150%.
